The values that follow come from BindingDB's records for doi:10.1021/acs.jmedchem.8b00082 (Abbvie, 2018).

Assay [1] is described as follows: Inhibition of HCV genotype 1b Con1 NS5A expressed in HuH7 cell infected HCV genotype 2b assessed as decrease in viral replication after 3 days by luciferase reporter gene assay. (Reporter assays use an easily measured gene product as a stand-in for the process of interest.)
Assay [2] in a line: Inhibition of HCV genotype 1b Con1 NS5A expressed in HuH7 cell infected HCV genotype 3a assessed as decrease in viral replication after 3 days by luciferase reporter gene assay.
Assay [3] is described as follows: Inhibition of HCV genotype 1b Con1 NS5A expressed in HuH7 cell infected HCV genotype 5a assessed as decrease in viral replication after 3 days by luciferase reporter gene assay.
Assay [4] can be described thus: Inhibition of HCV genotype 1b Con1 NS5A expressed in HuH7 cell infected HCV genotype 2a assessed as decrease in viral replication after 3 days by luciferase reporter gene assay.
Assay [5] can be described thus: Inhibition of HCV genotype 1b Con1 NS5A expressed in HuH7 cell infected HCV genotype 6a assessed as decrease in viral replication after 3 days by luciferase reporter gene assay.
The nature of assay [6]: Inhibition of NS5A in HuH7 cell infected HCV genotype 1b Con1 assessed as decrease in viral replication after 3 days by luciferase reporter gene assay.
Assay [7] in a line: Inhibition of HCV genotype 1b Con1 NS5A expressed in HuH7 cell infected HCV genotype 4a assessed as decrease in viral replication after 3 days by luciferase reporter gene assay.
Assay [8] can be described thus: Inhibition of NS5A in HuH7 cell infected HCV genotype 1a H77 assessed as decrease in viral replication after 3 days by luciferase reporter gene assay.
A short description of assay [9]: Inhibition of NS5A in HuH7 cell infected HCV genotype 1a H77 assessed as decrease in viral replication after 3 days in presence of 40% human plasma by luciferase reporter gene assay.
A short description of assay [10]: Inhibition of NS5A in HuH7 cell infected HCV genotype 1b Con1 assessed as decrease in viral replication after 3 days in presence of 40% human plasma by luciferase reporter gene assay.

Turning to `COC(=O)N[C@H](C(=O)N1CCC[C@H]1c1nc2cc(F)c([C@H]3CC[C@H](c4cc5[nH]c([C@@H]6CCCN6C(=O)[C@@H](NC(=O)OC)C(C)C)nc5cc4F)N3c3cc(F)c(N4CCC(c5ccc(F)cc5)CC4)c(F)c3)cc2[nH]1)C(C)C`, the EC50 is 2 pM in assay [1]; 1 pM in [2]; 1 pM in assay [3]; 3 pM in assay [4]; 3 pM in assay [5]; 3 pM in assay [6]. The EC50 in assay [7] was found to be 1 pM; in assay [8] it was 1 pM; in assay [9], 70 pM; in assay [10] it was 172 pM.

Turning to `COC(=O)N[C@H](C(=O)N1CCC[C@H]1c1nc2ccc([C@H]3CC[C@H](c4ccc5nc([C@@H]6CCCN6C(=O)[C@@H](NC(=O)OC)C(C)C)[nH]c5c4)N3c3cc(F)c(N4CCC(c5ccccc5)CC4)c(F)c3)cc2[nH]1)C(C)C`, the concentration for a half-maximal effect (EC50) in assay [1] is 6 pM; in assay [2], 6 pM; in assay [3] it was 3 pM; in assay [4], 8 pM; in [5] it was 8 pM; in [6], 6 pM. Further, the EC50 in assay [7] amounted to 4 pM; in assay [8] it was 2 pM; in [9] it was 76 pM; in assay [10], 183 pM.

Regarding `COC(=O)N[C@H](C(=O)N1CCC[C@H]1c1nc2cc(F)c([C@H]3CC[C@H](c4cc5[nH]c([C@@H]6CCCN6C(=O)[C@@H](NC(=O)OC)[C@@H](C)OC)nc5cc4F)N3c3cc(F)c(N4CCC(c5ccccc5)CC4)c(F)c3)cc2[nH]1)[C@@H](C)OC`, the EC50 in assay [1] came to 3 pM; in assay [2], 3 pM; in assay [3] it was 2 pM; in assay [4], 3 pM; in assay [5], 4 pM; in assay [6], 3 pM. In addition, the EC50 in assay [7] came out at 3 pM; in assay [8], 1 pM; in assay [9], 43 pM; in assay [10], 138 pM.

As to `COC(=O)N[C@H](C(=O)N1CCC[C@H]1c1nc2cc(F)c([C@H]3CC[C@H](c4cc5[nH]c([C@@H]6CCCN6C(=O)[C@@H](NC(=O)OC)C6CCOCC6)nc5cc4F)N3c3cc(F)c(N4CCC(c5ccccc5)CC4)c(F)c3)cc2[nH]1)C1CCOCC1`, the half-maximal effective concentration (EC50) in [1] came to 8 pM; in assay [2] it was 11 pM; in assay [3] it was 6 pM; in [4], 9 pM; in [5], 12 pM; in assay [6], 8 pM. For the same compound, the EC50 in assay [7] was 6 pM; in assay [8], 4 pM; in assay [9], 136 pM; in assay [10], 337 pM.

In the case of `COC(=O)N[C@H](C(=O)N1CCC[C@H]1c1nc2cc(F)c([C@H]3CC[C@H](c4cc5[nH]c([C@@H]6CCCN6C(=O)[C@@H](NC(=O)OC)C6CCOCC6)nc5cc4F)N3c3cc(F)c(N4CCC(c5ccc(F)cc5)CC4)c(F)c3)cc2[nH]1)C1CCOCC1`, the EC50 is 8 pM in assay [1]; 7 pM in assay [2]; 5 pM in [3]; 8 pM in assay [4]; 8 pM in assay [5]; 7 pM in assay [6]. Also, the half-maximal effective concentration (EC50) in [7] stood at 6 pM; in assay [8], 3 pM; in assay [9] it was 220 pM; in assay [10], 522 pM.

In the case of `COC(=O)N[C@H](C(=O)N1CCC[C@H]1c1nc2cc(F)c([C@H]3CC[C@H](c4cc5[nH]c([C@@H]6CCCN6C(=O)[C@@H](NC(=O)OC)C(C)C)nc5cc4F)N3c3cc(F)c(N4CCC(c5ccccc5)CC4)c(F)c3)cc2[nH]1)C(C)C`, the EC50 is 3 pM in assay [1]; 4 pM in assay [2]; 2 pM in [3]; 8 pM in assay [4]; 9 pM in assay [5]; 6 pM in assay [6]. The EC50 in assay [7] came to 4 pM; in assay [8], 2 pM; in [9] it was 58 pM; in assay [10] it was 135 pM.

As a reminder, the EC50 is the midpoint of the concentration-response curve.
